{"source": "patent US10813932B2", "about": "“1-pyrazolyl-3-(4-((2-anilinopyrimidin-4-yl) oxy) napththalen-1-yl) ureas as P38 MAP knase inhibitors” (Respivert Limited, priority 2011, dated 2020)", "key": {"A/J mice": {"test_system": "A/J mice", "assay": "Cigarette smoke model", "assay_type": "in vivo", "protocol": "A/J mice (males, 5 weeks old) were exposed to cigarette smoke (4% cigarette smoke, diluted with air) for 30 min/day for 11 days using a Tobacco Smoke Inhalation Experiment System for small animals (Model SIS-CS; Sibata Scientific Technology, Tokyo, Japan). Test substances were administered intra-nasally (35 μL of solution in 50% DMSO/PBS) once daily for 3 days after the final cigarette smoke exposure. At 12 hr after the last dosing, each of the animals was anesthetized, the trachea cannulated and bronchoalveolar lavage fluid (BALF) was collected. The numbers of alveolar macrophages and neutrophils were determined by FACS analysis (EPICS® ALTRA II, Beckman Coulter, Inc., Fullerton, Calif., USA) using anti-mouse MOMA2 antibody (macrophage) or anti-mouse 7/4 antibody (neutrophil). BALF was centrifuged and the supernatant was collected. The level of keratinocyte chemoattractant (KC; CXCL1) in BALF was quantitated using a Quentikine® mouse KC ELISA kit (R&D systems, Inc., Minneapolis, Minn., USA)."}, "Balb/c mice": {"test_system": "Balb/c mice", "assay": "LPS-induced neutrophil accumulation in mice", "assay_type": "in vivo", "protocol": "Non-fasted Balb/c mice were dosed by the intra tracheal route with either vehicle, or the test substance at the indicated times (within the range 2-8 hr) before stimulation of the inflammatory response by application of an LPS challenge. At T=0, mice were placed into an exposure chamber and exposed to LPS (7.0 mL, 0.5 mg/mL solution in PBS) for 30 min). After a further 8 hr the animals were anesthetized, their tracheas cannulated and BALF extracted by infusing and then withdrawing from their lungs 1.0 mL of PBS via the tracheal catheter. Total and differential white cell counts in the BALF samples were measured using a Neubaur haemocytometer. Cytospin smears of the BALF samples were prepared by centrifugation at 200 rpm for 5 min at RT and stained using a DiffQuik stain system (Dade Behring). Cells were counted using oil immersion microscopy. Data for neutrophil numbers in BAL are shown as mean±S.E.M. (standard error of the mean). The percentage inhibition of neutrophil accumulation was calculated for each treatment relative to vehicle treatment."}}}
{"compound": "Cc1ccc(-n2nc(C(C)(C)C)cc2NC(=O)Nc2ccc(Oc3ccnc(Nc4ccccc4)n3)c3ccccc23)cc1", "note": "[Example 1, 1-(3-(tert-Butyl)-1-(p-tolyl)-1H-pyrazol-5-yl)-3-(4-(2-(phenylamino)pyrimidin-4-yloxy)naphthalen-1-yl)urea]", "values": [{"measurement": "cigarette smoke induced CXCL1 (KC) production in BALF", "setting": "A/J mice", "result": "inhibited"}, {"measurement": "macrophage accumulation in BALF induced by cigarette smoke", "setting": "A/J mice", "result": "dose-dependent inhibition"}, {"measurement": "neutrophil accumulation in BALF induced by cigarette smoke", "setting": "A/J mice", "result": "dose-dependent inhibition"}, {"measurement": "LPS-induced neutrophil accumulation", "setting": "Balb/c mice", "result": "dose dependent inhibition"}]}
